This is an account of results in article PMC10683027, “Discovery of tert-Butyl Ester Based 6-Diazo-5-oxo-L-norleucine Prodrugs for Enhanced Metabolic Stability and Tumor Delivery” (Journal of Medicinal Chemistry, 2023).

≈ marks a conversion by molar mass, not a printed value. Where two headings read alike, the source gives them in different places.

On the set-up of data set [1]: method as in PMID 13489662. The conditions noted are these: 2 weeks or more of DON therapy; cited from earlier work.
The next data set relates to hematologic malignancies. On the set-up: method as in PMID 13918321. The conditions noted are these: DON combination with standard 6-mercaptopurine (6-MP) therapy; cited from earlier work.
Data set [2] is described as follows: Chemical (aqueous) stability in buffer pH 7.4. It counts as physicochemical. The conditions noted are these: 10 μM, pH 7.4 PBS, 37 °C, 24 h, HRMS/LCMS. Here is the method: (§1) The aqueous solubility was determined as previously reported with minor modifications.[48] Briefly, an excess amount of P11 or DRP-104 was added to PBS buffer (pH 7.4) and sonicated for 1 h at 37 °C to ensure saturation. After 1 h, the solution was filtered (0.45 μm PTFE), and the filtrate was diluted appropriately, and the concentration of each analyte was determined via LC–MS. Chemical stabilities of DRP-104 and P11 were done as previously described[18] with modifications. For chemical stability, prodrugs were spiked (10 μM) in buffer at pH 7.4 and incubated at 37 °C for 24 h. Prodrug disappearance was monitored using the developed HRMS methods.

For another data set, the system named is P493B lymphoma cells. The data set is described as follows: Cell viability assay. The settings on record: Homo sapiens, 72 h, 72 h incubation. Format: cell-based. On the procedure: Cell proliferation assays were performed as we have previously described.[19] Briefly, P493B lymphoma cells were plated in 96-well plates at a density of 20 000 cells/well in a final volume of 100 μL of growth media. P11, or DRP-104, was added to cells in half-log serial dilutions with a final concentration of 0.2% DMSO. Cells were allowed to proliferate for 72 h, and thereafter, 20 μL of CellTiter 96 AQueous (Promega no. 3580) was added per well and incubated for 2 h. Absorbance was measured at 490 nm. Relative cell viability was calculated from the difference between untreated cell wells (100%) and media well without cells (0%).

Details of data set [3]: method as in PMID 36383674. The settings on record: cited from earlier work.
On the set-up of data set [4]: method as in printed. The conditions noted are these: background statement; ref not given; cited from earlier work.
A short description of data set [5]: Metabolic stability in mouse plasma. The settings on record: for remaining at 1 h, 10 µM: CES1–/–, mouse, plasma; for Plasma: supplementary CSV, unit not given, matches Table 1 % remaining at 1 h, in %.
Data set [6] deals with P493B lymphoma cells suspended in human plasma. Nature of the data set: Human tumor cell to plasma partitioning assay. The settings on record: 20 μM; 1 h; human plasma fraction. It counts as cell-based. Here is the method: Human tumor cell to plasma partitioning assays were conducted as we have previously described.[25] Briefly, P493B lymphoma cells were grown at 37 °C, in a humidified atmosphere with 5% CO2. Cell confluency was estimated, and cells were harvested after achieving >80% confluency and centrifuged at 200g for 5 min at 25 °C. The obtained cell pellet was resuspended in 20 mL of Dulbecco’s phosphate-buffered saline (DPBS; Gibco, USA, cat. no. 14-190-144) maintained at 37 °C, and cell count was determined using an automated cell counter (Bio-Rad, USA). Cell suspension in DPBS was further centrifuged at 200g for 5 min at 25 °C, and the cell pellet was resuspended in human plasma (Innovative Research, USA) for partitioning assessment. The final cell density after resuspending in plasma was 10 million cells/mL of plasma. Partitioning assessment was performed in triplicate. Preincubated (37 °C for 5 min) cell–plasma suspension was spiked with DRP-104 or P11 at a final concentration of 20 μM and incubated at 37 °C for 1 h. Following incubation, a 1 mL aliquot of cell–plasma suspension was centrifuged at 1000g for 5 min at 4 °C, and supernatant plasma as well as the cell pellet was collected and stored at −80 °C until bioanalysis. Both plasma and cell pellet fractions were analyzed for intact prodrug and DON levels. […]

Data set [7] can be described thus: Aqueous solubility assay in PBS buffer (pH 7.4). The conditions noted are these: PBS buffer pH 7.4; 37 °C; 1 h. Format: physicochemical. Here is the method:
as §1

Data set [8] in a line: Metabolic stability in mouse intestinal homogenate (GIh). The conditions noted are these: for remaining at 1 h, 10 µM: CES1–/–, mouse, intestinal homogenate; for Intestinal homogenate: supplementary CSV, unit not given, matches Table 1 % remaining at 1 h, in %.
Data set [9] is described as follows: in vitro. The settings on record: CES1–/–, mouse, tissue homogenate.
Description: (§2) Briefly, intestinal tissue was homogenized over ice via probe sonication with 1:9 tissue to potassium phosphate buffer (0.1 M) conditions. Prodrugs were spiked in plasma or tissue homogenate at 10 μM final concentration with 0.2% DMSO v/v and incubated in triplicate for 0 and 60 min time points. At each time point, 100 μL of the sample was precipitated with 300 μL of methanol containing internal standard (IS; losartan, 0.5 μM). Precipitated samples were vortexed (30 s) and centrifuged at 10000g for 10 min at 4 °C. After centrifugation, 100 μL of supernatant was aliquoted and submitted for analysis. Prodrug disappearance over time was monitored by liquid chromatography–mass spectrometry (LC–MS) through peak area ratios between the analyte and internal standard.
(§3) Chromatographic analysis was performed on a Dionex ultra-high-performance LC system coupled with a Q Exactive Focus Orbitrap mass spectrometer (Thermo Fisher Scientific Inc., Waltham, MA). Separation was achieved using an Agilent Eclipse Plus column (100 × 2.1 mm i.d.; maintained at 35 °C) packed with a 1.8 μm C18 stationary phase. The mobile phase used was composed of 0.1% formic acid in acetonitrile and 0.1% formic acid in water with gradient elution, starting with 2.5% organic phase (from 0 to 0.25 min) and linearly increasing to 99% (from 0.25 to 1.25 min) and re-equilibrating to 2.5% by 4 min. The total run time for each analyte was 5 min. Pumps were operated at a flow rate of 0.4 mL/min. The mass spectrometer controlled by Xcalibur software 4.0.27.13 (Thermo Scientific) was operated with an HESI ion source in positive ionization mode for all compounds. Compounds were identified in the full-scan mode with m/z ranging from 75 to 1125.
The nature of data set [10]: in vitro. The settings on record: CES1–/–, mouse, plasma.
Description: as §2, §3
The conditions of data set [11]: CES1–/–, mouse, 1 h, 10 μM.
Description: as §2, §3
For data set [12] the following is noted: CES1–/–, mouse, 1 h, 10 μM. This is another data set of the same source.
Description: as §2, §3
Data set [13] in a line: Single time point pharmacokinetic screening, released DON in plasma and tumor of EL4 tumor-bearing mice. Format: in vivo, C57BL/6/CES1–/– mice. The settings on record: 1 mg/kg DON equivalent SC; 30 min. Here is the method:
C57BL/6/CES1^–/– mice were obtained as a gift from the United States Army Medical Research Institute of Chemical Defense, Maryland, USA; breeding was performed in the Johns Hopkins animal facility and was conducted according to protocols reviewed and approved by the Johns Hopkins Institutional Animal Care and Use Committee in compliance with the Association for Assessment and Accreditation of Laboratory Animal Care International (AAALAC) and the Public Health Service Policy on the Humane Care and Use of Laboratory Animals (PHS Policy). Male and female C57BL/6 mice (weighing between 25 and 30 g) 6–8 weeks of age were used for the study. The animals were maintained on a 12 h light–dark cycle with ad libitum access to food (certified laboratory food: Teklad 18% Protein Extruded Rodent Diet) and water. EL4 mouse lymphoma cells were obtained as a gift from the laboratory of Dr. Jonathan Powell (Johns Hopkins University, Baltimore, MD) and maintained in RPMI 1640 medium 1X (Corning, cat. no. 10-040-CV) with 10% (v/v) fetal bovine serum (Corning, cat. no. 35-011-CV), 1% (v/v) antimycotic/antibiotic (Corning, cat. no. 30-004-CI), 2 mM L-glutamine (Corning, cat. no. 25-005-CI), and 10 mM HEPES (Corning, cat. no. 25-060-CI) in a 5% (v/v) CO2 and 95% (v/v) air incubator prior to subcutaneous (SC) injection (1 × 10^6 cells in 0.2 mL of phosphate-buffered saline) on the flank of each mouse. […]

Usually EC50 stands for the concentration at which the effect is half-maximal. Lower therefore signals greater potency. Usually solubility stands for the dissolved amount per volume that the medium holds. The low end stands for a poorly soluble substance, the high end for a readily soluble substance.

For `[N-]=[N+]=CC(=O)CC[C@H](N)C(=O)O` [DON, 6-Diazo-5-oxo-L-norleucine], the “patients with disease stability or regression” value in [1] is on record as 66%. The “patients with complete bone marrow remissions” value in the data set with hematologic malignancies is on record as 42%.
`CC(=O)N[C@@H](Cc1c[nH]c2ccccc12)C(=O)N[C@@H](CCC(=O)C=[N+]=[N-])C(=O)OC(C)C` [DRP-104, isopropyl (S)-2-((S)-2-acetamido-3-(1H-indol-3-yl)-propanamido)-6-diazo-5-oxo-hexanoate, reference compound]: in data set [2], the “chemical stability in buffer” value is “remained intact without any degradation”. Further, the “chemical stability in buffer” value in [2] (listed as DRP 104) was “no degradation”. This compound also registered an EC50 with P493B lymphoma cells of roughly 1000 nM. The “fold greater delivery of DON to tumor versus GI tissues” value in [3] is reported as 11. Moreover, in data set [4], the “aqueous solubility (intrinsic)” value is less than 1000 µg/mL. Moreover, in data set [5], the amount remaining at 1 h, 10 µM was 94 ± 1% and the Plasma is given as 94 ± 1. In addition, the “stability and DON release in human plasma” value in data set [6] is given as “stable in human plasma with no DON release”. This compound had a solubility at 1 h in data set [7] of 240 ± 30 µg/mL (≈ 544 µM). In data set [8], the amount remaining at 1 h, 10 µM came to 0% and the Intestinal homogenate turned out to be 0 ± 0.
Regarding `CC(C)(C)OC(=O)[C@H](CCC(=O)C=[N+]=[N-])NC(=O)[C@H](Cc1c[nH]c2ccccc12)NC(=O)C12CCN(CC1)CC2` [Prodrug P8, tert-Butyl (S)-2-((S)-3-(1H-Indol-3-yl)-2-(quinuclidine-4-carboxamido)propanamido)-6-diazo-5-oxohexanoate], the amount remaining at 1 h, 10 µM in the data set “in vitro [9]” was found to be 71%; in the data set “in vitro [10]”, 106 ± 2%. The Plasma in [11] was 106 ± 2. This compound yielded an Intestinal homogenate in data set [12] of 71 ± 0.
For the compound `CN(C)CC(=O)N[C@@H](CCc1ccccc1)C(=O)N[C@@H](CCC(=O)C=[N+]=[N-])C(=O)OC(C)(C)C` [Prodrug P14, tert-Butyl (S)-6-Diazo-2-((S)-2-(2-(dimethylamino)acetamido)-4-phenylbutanamido)-5-oxohexanoate], the “preferential DON tumor versus plasma delivery” value in data set [13] is given as “maintained the preferential DON tumor versus plasma delivery”. For the same compound, in data set [5], the fraction remaining at 1 h, 10 µM worked out at 102 ± 2% and the Plasma was 102 ± 2. In addition, in data set [8], the amount remaining at 1 h, 10 µM stood at 97 ± 3% and the Intestinal homogenate is listed as 97 ± 3.
